Where “and” joins values, the source holds several entries; their conditions need not be identical. Equal values may be shown once.
Key:
[1] = for vapor or sublimation pressure: Torsion effusion method
[2] = Molar enthalpy of transition or fusion; conditions: Crystal; DSC

O=C(O)c1ccc([N+](=O)[O-])c([N+](=O)[O-])c1 [3,4-dinitrobenzoic acid]
[1]
Conditions	Normal melting temperature [°C]	vapor or sublimation pressure
366 K, Crystal	–	6e-05 kPa
367 K, Crystal	–	7.5e-05 kPa
368 K, Crystal	–	7.5e-05 kPa
369 K, Crystal	–	9e-05 kPa
370 K, Crystal	–	0.000105 kPa
370.5 K, Crystal	–	0.000105 kPa
373 K, Crystal	–	0.00015 kPa
373.5 K, Crystal	–	0.00015 kPa
374 K, Crystal	–	0.00015 kPa
374.5 K, Crystal	–	0.00015 kPa
376 K, Crystal	–	0.00018 kPa
378 K, Crystal	–	0.00024 kPa
379 K, Crystal	–	0.00027 kPa
380 K, Crystal	–	0.00027 kPa
382 K, Crystal	–	0.00039 kPa and 0.00036 kPa
383 K, Crystal	–	0.00039 kPa
383.5 K, Crystal	–	0.00039 kPa
384.5 K, Crystal	–	0.00048 kPa
385 K, Crystal	–	0.000511 kPa
386.5 K, Crystal	–	0.000541 kPa
387 K, Crystal	–	0.000571 kPa
387.5 K, Crystal	–	0.000631 kPa
390.5 K, Crystal	–	0.000841 kPa
391.5 K, Crystal	–	0.000901 kPa
392 K, Crystal	–	0.000991 kPa
393 K, Crystal	–	0.001171 kPa
393.5 K, Crystal	–	0.001111 kPa
396 K, Crystal	–	0.001502 kPa and 0.001441 kPa
396.5 K, Crystal	–	0.001622 kPa
397 K, Crystal	–	0.001652 kPa
398.5 K, Crystal	–	0.001862 kPa
399.3 K, Crystal	–	0.001952 kPa
504.2 K, Liquid	–	1.398 kPa
506.3 K, Liquid	–	1.467 kPa and 1.527 kPa
508.1 K, Liquid	–	1.661 kPa
509.3 K, Liquid	–	1.686 kPa and 1.713 kPa
510.3 K, Liquid	–	1.855 kPa
511.2 K, Liquid	–	1.855 kPa
512.2 K, Liquid	–	2.062 kPa and 1.928 kPa
512.6 K, Liquid	–	2.021 kPa
513.3 K, Liquid	–	2.078 kPa
514 K, Liquid	–	2.144 kPa
514.2 K, Liquid	–	2.189 kPa
514.5 K, Liquid	–	2.164 kPa
515.2 K, Liquid	–	2.237 kPa
516.3 K, Liquid	–	2.326 kPa and 2.215 kPa
517.3 K, Liquid	–	2.424 kPa
517.4 K, Liquid	–	2.494 kPa
517.5 K, Liquid	–	2.396 kPa
518.2 K, Liquid	–	2.524 kPa and 2.484 kPa
518.3 K, Liquid	–	2.448 kPa
519.1 K, Liquid	–	2.585 kPa
519.3 K, Liquid	–	2.646 kPa
519.5 K, Liquid	–	2.554 kPa
520 K, Liquid	–	2.619 kPa
520.2 K, Liquid	–	2.672 kPa and 2.772 kPa and 2.726 kPa
521.2 K, Liquid	–	2.916 kPa
521.3 K, Liquid	–	2.807 kPa
521.7 K, Liquid	–	2.815 kPa
522.1 K, Liquid	–	2.909 kPa and 2.971 kPa
522.2 K, Liquid	–	2.978 kPa
523.1 K, Liquid	–	3.104 kPa
523.3 K, Liquid	–	3.095 kPa and 3.121 kPa
523.5 K, Liquid	–	3.122 kPa
524.1 K, Liquid	–	3.125 kPa
524.2 K, Liquid	–	3.059 kPa and 3.181 kPa
524.4 K, Liquid	–	3.199 kPa
525 K, Liquid	–	3.353 kPa
525.2 K, Liquid	–	3.39 kPa
525.5 K, Liquid	–	3.335 kPa
526 K, Liquid	–	3.494 kPa
526.3 K, Liquid	–	3.406 kPa and 3.328 kPa and 3.288 kPa
526.5 K, Liquid	–	3.316 kPa
527.1 K, Liquid	–	3.585 kPa
527.3 K, Liquid	–	3.551 kPa and 3.644 kPa
528.1 K, Liquid	–	3.726 kPa and 3.627 kPa
528.2 K, Liquid	–	3.635 kPa
528.3 K, Liquid	–	3.831 kPa
529.2 K, Liquid	–	3.887 kPa
529.4 K, Liquid	–	3.764 kPa
529.6 K, Liquid	–	3.879 kPa and 3.918 kPa
530.1 K, Liquid	–	3.984 kPa
530.3 K, Liquid	–	4.036 kPa and 4.045 kPa
531 K, Liquid	–	4.159 kPa
531.3 K, Liquid	–	4.262 kPa and 4.216 kPa
532.2 K, Liquid	–	4.348 kPa [middle of 4 runs]
533.2 K, Liquid	–	4.481 kPa
533.3 K, Liquid	–	4.576 kPa and 4.47 kPa
534.3 K, Liquid	–	4.611 kPa and 4.532 kPa
535.4 K, Liquid	–	4.812 kPa
535.7 K, Liquid	–	4.867 kPa
536.2 K, Liquid	–	4.889 kPa
536.5 K, Liquid	–	4.992 kPa
537.3 K, Liquid	–	5.217 kPa
538.3 K, Liquid	–	5.356 kPa
539.3 K, Liquid	–	5.685 kPa
540.6 K, Liquid	–	5.862 kPa
Crystal, DTA	165.1	–

Conditions	Molar enthalpy of transition or fusion [kJ/mol]
[2]	24.6

Source: the NIST ThermoML archive (doi:10.1016/j.jct.2009.02.008)
